ChEMBL document CHEMBL5108025, “New thiazole-based derivatives as EGFR/HER2 and DHFR inhibitors: Synthesis, molecular modeling simulations and anticancer activity” (Eur J Med Chem, 2022)

Key:
[1] = tested on: MCF7; test: cells; settings: Homo sapiens, MCF7, 72 h
[2] = tested on: HCT-116; test: cells; settings: Homo sapiens, HCT-116, 72 h
Description: Antiproliferative activity against human HCT-116 cells after 72 hrs by MTT assay

[3] = tested on: HepG2; test: cells; settings: Homo sapiens, HepG2, 72 h
[4] = tested on: HeLa; test: Antiproliferative activity against human HeLa cells after 72 hrs by MTT assay; assay type: functional, cell-based
[5] = tested on: PC-3; test: Antiproliferative activity against human PC-3 cells after 72 hrs by MTT assay; assay type: functional, cell-based; settings: PC-3, 72 h
[6] = biological target: Receptor tyrosine-protein kinase erbB-2 (Homo sapiens, UniProt P04626); test: Inhibition of recombinant human HER2 incubated for 40 to 45 mins and measured after 15 mins by Kinase-Glo Max assay
[7] = tested on: WI-38; test: Antiproliferative activity against human WI-38 cells after 72 hrs by MTT assay; assay type: functional, cell-based; settings: WI-38, 72 h
[8] = biological target: Epidermal growth factor receptor (Homo sapiens, UniProt P00533)
Description: Inhibition of recombinant human EGFR incubated for 40 to 45 mins and measured after 15 mins by Kinase-Glo Max assay

[9] = biological target: T1, Dihydrofolate reductase (Homo sapiens, UniProt P00374); test: Inhibition of recombinant human DHFR expressed in Escherichia coli incubated for 15 mins and measured by ELISA
T1 sequence (P00374 whole entry): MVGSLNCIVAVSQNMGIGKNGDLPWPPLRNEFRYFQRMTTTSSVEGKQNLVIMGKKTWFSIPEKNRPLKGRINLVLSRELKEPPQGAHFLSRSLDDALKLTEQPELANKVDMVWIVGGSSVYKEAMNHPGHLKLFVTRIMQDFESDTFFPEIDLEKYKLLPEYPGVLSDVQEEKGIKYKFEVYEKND

Sequence of Receptor tyrosine-protein kinase erbB-2 (P04626 whole entry): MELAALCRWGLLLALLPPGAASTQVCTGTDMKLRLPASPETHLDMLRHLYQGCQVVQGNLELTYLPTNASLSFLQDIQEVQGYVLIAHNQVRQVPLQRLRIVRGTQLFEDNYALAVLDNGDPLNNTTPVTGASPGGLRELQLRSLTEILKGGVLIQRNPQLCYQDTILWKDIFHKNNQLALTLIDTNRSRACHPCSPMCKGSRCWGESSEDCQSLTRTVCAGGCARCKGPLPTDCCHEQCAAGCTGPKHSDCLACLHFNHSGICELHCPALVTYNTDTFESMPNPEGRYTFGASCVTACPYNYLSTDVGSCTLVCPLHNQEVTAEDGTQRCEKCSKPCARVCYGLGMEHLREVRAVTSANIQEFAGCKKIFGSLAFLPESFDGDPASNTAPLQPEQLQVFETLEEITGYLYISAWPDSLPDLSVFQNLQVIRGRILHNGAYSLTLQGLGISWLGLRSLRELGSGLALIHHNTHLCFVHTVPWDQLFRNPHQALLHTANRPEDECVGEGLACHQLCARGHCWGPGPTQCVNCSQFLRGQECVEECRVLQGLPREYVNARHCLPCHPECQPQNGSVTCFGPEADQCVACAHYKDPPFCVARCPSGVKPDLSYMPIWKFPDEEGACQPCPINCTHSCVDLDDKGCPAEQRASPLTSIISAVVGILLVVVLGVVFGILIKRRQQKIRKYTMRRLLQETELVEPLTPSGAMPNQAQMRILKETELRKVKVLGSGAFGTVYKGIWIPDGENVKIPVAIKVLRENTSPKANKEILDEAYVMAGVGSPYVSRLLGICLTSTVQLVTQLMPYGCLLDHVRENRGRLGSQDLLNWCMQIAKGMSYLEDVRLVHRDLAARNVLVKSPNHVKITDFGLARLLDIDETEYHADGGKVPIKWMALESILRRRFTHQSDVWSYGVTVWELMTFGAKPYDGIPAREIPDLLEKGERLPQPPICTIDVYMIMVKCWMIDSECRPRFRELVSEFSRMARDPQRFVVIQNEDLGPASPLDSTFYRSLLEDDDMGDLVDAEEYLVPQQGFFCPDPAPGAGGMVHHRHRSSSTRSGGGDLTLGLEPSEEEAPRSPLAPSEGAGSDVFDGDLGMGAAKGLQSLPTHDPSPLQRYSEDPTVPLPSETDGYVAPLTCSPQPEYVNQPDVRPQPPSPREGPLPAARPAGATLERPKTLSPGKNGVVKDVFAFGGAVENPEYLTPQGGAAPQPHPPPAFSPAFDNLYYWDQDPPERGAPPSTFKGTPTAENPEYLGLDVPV
Sequence of Epidermal growth factor receptor (P00533 whole entry): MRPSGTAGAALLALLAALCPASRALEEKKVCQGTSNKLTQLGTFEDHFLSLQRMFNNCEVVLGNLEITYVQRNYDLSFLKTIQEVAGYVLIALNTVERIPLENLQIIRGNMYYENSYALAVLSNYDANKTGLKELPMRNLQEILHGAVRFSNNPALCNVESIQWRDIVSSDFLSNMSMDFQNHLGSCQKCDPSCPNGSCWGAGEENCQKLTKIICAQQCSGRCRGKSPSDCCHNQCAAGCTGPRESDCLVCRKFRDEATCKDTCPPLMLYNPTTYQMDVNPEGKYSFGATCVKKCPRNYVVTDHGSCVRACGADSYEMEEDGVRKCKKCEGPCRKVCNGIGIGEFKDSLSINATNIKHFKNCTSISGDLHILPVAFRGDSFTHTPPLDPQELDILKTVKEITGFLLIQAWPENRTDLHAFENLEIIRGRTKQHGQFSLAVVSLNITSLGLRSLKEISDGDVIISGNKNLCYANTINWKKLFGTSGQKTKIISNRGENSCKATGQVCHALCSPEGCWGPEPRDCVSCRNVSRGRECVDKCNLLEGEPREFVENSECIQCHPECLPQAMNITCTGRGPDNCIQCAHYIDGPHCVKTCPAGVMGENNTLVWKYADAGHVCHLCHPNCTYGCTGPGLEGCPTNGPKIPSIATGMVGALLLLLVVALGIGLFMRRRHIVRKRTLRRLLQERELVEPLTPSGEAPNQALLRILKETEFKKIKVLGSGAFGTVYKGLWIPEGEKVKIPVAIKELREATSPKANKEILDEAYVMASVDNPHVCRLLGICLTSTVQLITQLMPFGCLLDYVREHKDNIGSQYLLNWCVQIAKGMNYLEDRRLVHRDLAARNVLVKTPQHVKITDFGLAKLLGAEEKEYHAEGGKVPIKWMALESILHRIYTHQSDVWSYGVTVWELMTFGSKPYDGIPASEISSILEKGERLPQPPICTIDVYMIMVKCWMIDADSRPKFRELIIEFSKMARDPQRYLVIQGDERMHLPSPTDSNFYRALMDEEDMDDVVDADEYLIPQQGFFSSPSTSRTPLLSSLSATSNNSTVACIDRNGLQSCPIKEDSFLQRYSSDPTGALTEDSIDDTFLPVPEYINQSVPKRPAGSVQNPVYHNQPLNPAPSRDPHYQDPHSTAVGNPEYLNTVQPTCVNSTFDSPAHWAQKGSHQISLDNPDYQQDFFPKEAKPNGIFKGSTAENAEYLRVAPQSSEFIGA

SMILES	IC50 [1] [µM]	IC50 [2] [µM]	IC50 [3] [µM]	IC50 [4] [µM]	IC50 [5] [µM]	IC50 [6] [µM]	IC50 [7] [µM]	IC50 [8] [µM]	IC50 [9] [µM]
CCOC(=O)c1csc2nc(CN3CCOCC3)c(-c3ccc(OC)cc3)n12	13.9	25.8	19.8	16.4	22.6	–	–	–	–
CCOC(=O)c1csc2nc(CN3CCN(C)CC3)c(-c3ccc(C)cc3)n12	58.3	61	53.6	43.9	65	–	–	–	–
O=C(NCCCc1ccccc1)c1csc(NC(=S)Nc2ccc(Cl)cc2)n1	45.1	36.6	53.1	32.2	42.4	–	–	–	–
CCCC(=O)NNC(=O)c1csc2nc(CN3CCOCC3)c(-c3ccc(Br)cc3)n12	35.9	46.8	38.4	29.2	52.9	–	–	–	–
CCCC(=O)NNC(=O)c1csc2nc(CN3CCOCC3)c(-c3ccc(OC)cc3)n12	72.4	68.7	81.2	53.7	88.5	–	–	–	–
CCCC(=O)NNC(=O)c1csc2nc(CN3CCOCC3)c(-c3ccc(C)cc3)n12	89.3	77.5	92.4	67.9	> 100	–	–	–	–
CCCC(=O)NNC(=O)c1csc2ncc(-c3ccc(C)cc3)n12	41.7	34.5	26.8	45.6	53.5	–	–	–	–
O=C(NCCc1ccccc1)c1csc(NC(=S)Nc2ccc(Cl)cc2)n1	17.2	29.7	11.8	30.4	33.8	–	–	–	–
CCOC(=O)c1csc2nc(CN3CCOCC3)c(-c3ccc(Br)cc3)n12	24.6	28.5	32.5	20.8	35.2	–	–	–	–
CCOC(=O)c1csc2nc(CN3CCN(C)CC3)c(-c3ccc(Br)cc3)n12	68.5	93.6	82.7	55.4	85	–	–	–	–
CCOC(=O)c1csc2nc(CN3CCN(C)CC3)c(-c3ccc(OC)cc3)n12	32.8	44.6	68.4	35.1	69.4	–	–	–	–
COc1ccc(-c2c(CN3CCCCC3)nc3scc(C(=O)O)n23)cc1	62.9	84.6	75	47.4	73.1	–	–	–	–
CCC(=O)NNC(=O)c1csc2nc(CN3CCOCC3)c(-c3ccc(C)cc3)n12	58.2	64.5	69.2	48.4	79.1	–	–	–	–
CN(Cc1cnc2nc(N)nc(N)c2n1)c1ccc(C(=O)N[C@@H](CCC(=O)O)C(=O)O)cc1 [METHOTREXATE]	25.3	9.25	21.9	13.7	28.8	–	–	–	–
CC(=O)NNC(=O)c1csc2ncc(-c3ccc(C)cc3)n12	57.3	71.8	63.6	74.2	92.7	–	–	–	–
CCC(=O)NNC(=O)c1csc2nc(CN3CCOCC3)c(-c3ccc(OC)cc3)n12	64.1	59.3	55.9	44.2	73.9	–	–	–	–
CCC(=O)NNC(=O)c1csc2ncc(-c3ccc(C)cc3)n12	5.19	9.23	7.34	13	18.5	0.244	67.2	0.45	5.67
CCOC(=O)c1csc2nc(CN3CCN(Cc4ccccc4)CC3)c(-c3ccc(Br)cc3)n12	51.4	37.2	47.3	29.5	56.4	–	–	–	–
CCOC(=O)c1csc2nc(CN3CCOCC3)c(-c3ccc(C)cc3)n12	43.6	32.6	39	24.8	47.1	–	–	–	–
COc1ccc(NC(=S)Nc2nc(C(=O)NCc3ccccc3)cs2)cc1	24.6	18.2	28.1	22.9	39.3	–	–	–	–

SMILES	IC50 [1] [µM]	IC50 [2] [µM]	IC50 [3] [µM]	IC50 [4] [µM]	IC50 [5] [µM]	IC50 [6] [µM]	IC50 [7] [µM]	IC50 [8] [µM]	IC50 [9] [µM]
CC(=O)NNC(=O)c1csc2nc(CN3CCOCC3)c(-c3ccc(C)cc3)n12	50.8	54.6	43	35.3	61.3	–	–	–	–
COc1ccc(-c2c(CN3CCOCC3)nc3scc(C(=O)NNC(C)=O)n23)cc1	11.3	29.9	23.7	18.9	34.8	–	–	–	–
CCC(=O)NNC(=O)c1csc2ncc(-c3ccc(Br)cc3)n12	15	25.3	19.2	23.1	43.7	–	–	–	–
O=C(NCc1ccccc1)c1csc(NC(=S)Nc2ccc(Cl)cc2)n1	56.5	62.1	40.3	76	51.3	–	–	–	–
NNC(=O)c1csc2nc(CN3CCOCC3)c(-c3ccc(Br)cc3)n12	6.18	17.9	5.81	3.65	21.9	0.121	49.8	0.419	3.28
CCC(=O)NNC(=O)c1csc2ncc(-c3ccc(OC)cc3)n12	53.2	64.3	45.8	56.2	79.8	–	–	–	–
CCOC(=O)c1csc2nc(CN3CCN(Cc4ccccc4)CC3)c(-c3ccc(OC)cc3)n12	17.1	19.6	26.4	9.94	29.4	–	–	–	–
Cc1ccc(-c2c(CN3CCOCC3)nc3scc(C(=O)NN)n23)cc1	8.46	13.2	9.67	6.9	11.2	0.357	89.6	0.246	0.123
CNC(=O)c1cc(Oc2ccc(NC(=O)Nc3ccc(Cl)c(C(F)(F)F)c3)cc2)ccn1 [SORAFENIB]	–	–	–	–	11.5	–	–	–	–
CCCC(=O)NNC(=O)c1csc2ncc(-c3ccc(Br)cc3)n12	27.5	50.3	33.6	31.9	58.5	–	–	–	–
CCCC(=O)NNC(=O)c1csc2ncc(-c3ccc(OC)cc3)n12	32.8	59.1	38	43.3	66.4	–	–	–	–
CCC(=O)NNC(=O)c1csc2nc(CN3CCOCC3)c(-c3ccc(Br)cc3)n12	25.4	34.1	31.2	27	42.7	–	–	–	–
COc1ccc(NC(=S)Nc2nc(C(=O)NCCc3ccccc3)cs2)cc1	10.6	8.13	19.5	14.8	25.1	–	–	–	–
CCOC(=O)c1csc2nc(CN3CCN(Cc4ccccc4)CC3)c(-c3ccc(C)cc3)n12	29.1	47.8	88.2	38.8	> 100	–	–	–	–
CC(=O)NNC(=O)c1csc2nc(CN3CCOCC3)c(-c3ccc(Br)cc3)n12	19.1	22	14.1	13.6	29.3	–	–	–	–
COc1ccc(-c2cnc3scc(C(=O)NNC(C)=O)n23)cc1	8.36	17	11.8	17.9	28.3	–	–	–	–
O=C(O)c1csc2nc(CN3CCCCC3)c(-c3ccc(Br)cc3)n12	87.5	> 100	> 100	76.6	> 100	–	–	–	–
COc1ccc(NC(=S)Nc2nc(C(=O)NCCCc3ccccc3)cs2)cc1	63.8	44.8	71.3	57.5	74.5	–	–	–	–
Cc1ccc(-c2c(CN3CCCCC3)nc3scc(C(=O)O)n23)cc1	8.29	13.8	10.8	7.63	16.6	0.146	> 100	0.18	0.907
